Data published in ChEMBL document CHEMBL1821647, “Synthesis and antioxygenic activities of seabuckthorn flavone-3-ols and analogs” (Bioorg Med Chem Lett, 2011).

Tested on: Radical scavenging activity
Assay: Antioxidant activity assessed as DPPH free radical scavenging activity
Type: functional

SMILES	EC50
O=c1c(O)c(-c2ccc(O)c(O)c2)oc2cc(O)cc(O)c12 [QUERCETIN]	14.4 µg
COc1cc(-c2oc3cc(O)cc(O)c3c(=O)c2O)ccc1O [ISORHAMNETIN]	26.2 µg
C[C@@H]1O[C@@H](OC[C@H]2O[C@@H](Oc3c(-c4ccc(O)c(O)c4)oc4cc(O)cc(O)c4c3=O)[C@H](O)[C@@H](O)[C@@H]2O)[C@H](O)[C@H](O)[C@H]1O [RUTIN]	15.5 µg
O=C(O)[C@H]1O[C@@H](Oc2c(O)cc(O)c3c(=O)c(O)c(-c4ccc(O)c(O)c4)oc23)[C@H](O)[C@@H](O)[C@@H]1O [HIBIFOLIN]	16 µg
O=c1c(O)c(-c2ccc(O)c(O)c2)oc2c(O)c(O)cc(O)c12 [GOSSYPETIN]	5.5 µg
O=C(O)c1cc(O)c(O)c(O)c1 [GALLIC ACID]	3.8 µg
O=c1oc2c(O)c(O)cc3c(=O)oc4c(O)c(O)cc1c4c23 [ELLAGIC ACID]	4.8 µg
Cc1c(C)c2c(c(C)c1O)CCC(C)(C(=O)O)O2 (centres undefined) [TROLOX]	12.5 µg

The next lines start with the values.

EC50	SMILES
14.6 µg	O=c1c(O)c(-c2ccc(O)cc2)oc2cc(O)cc(O)c12 [KAEMPFEROL]
> 100 µg	COc1ccc(C2Oc3cc(O)cc(O)c3C(=O)C2O)cc1O (centres undefined) [TAMARAXETIN]
> 100 µg	COc1ccc(-c2oc3cc(O)cc(O)c3c(=O)c2O)cc1O [TAMARIXETIN]
24 µg	O=C1c2c(O)cc(O)cc2O[C@H](c2ccc(O)c(O)c2)[C@H]1O [(+)-TAXIFOLIN]
25.5 µg	O=c1c(O)c(-c2ccc(O)c(O)c2)oc2c(O[C@@H]3O[C@H](CO)[C@@H](O)[C@H](O)[C@H]3O)c(O)cc(O)c12
97 µg	COc1ccc(-c2oc3cc(O)cc(O)c3c(=O)c2O)cc1 [KAEMPFERIDE]
> 100 µg	COc1cc(C2Oc3cc(O)cc(O)c3C(=O)C2O)ccc1O (centres undefined) [DIHYDROISORHAMNETIN]
> 100 µg	COc1ccc(C2Oc3cc(O)cc(O)c3C(=O)C2O)cc1 (centres undefined) [DIHYDROKAEMPFERIDE]
10.6 µg	COc1c(O)cc2oc(-c3ccc(O)c(O)c3)c(O)c(=O)c2c1O [PATULETIN]
> 100 µg	O=C1c2c(O)cc(O)cc2O[C@H](c2ccc(O)cc2)[C@H]1O [DIHYDROKAEMPFEROL]
10.5 µg	O=c1c(O)c(-c2ccc(O)c(O)c2)oc2cc(O)c(O)c(O)c12 [QUERCETAGETIN]
